From PubChem BioAssay (NCI)
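Growth conditions: 96-well plates. Treatment: test compound, 48 hours, 5 concentrations. Analysis: linear interpolation between bracketing concentrations; unreached endpoints set to highest concentration. TGI denotes the concentration required for complete inhibition of growth.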

Assays:
Assay in all cases: growth of human tumour cells (NCI), 48 h
[1] = test system: M14 melanoma
[2] = test system: COLO 205 colon
[3] = test system: TK-10 renal
[4] = test system: HOP-62 NSCLC
[5] = test system: 786-0 renal
[6] = test system: SNB-19 CNS
[7] = test system: A498 renal
[8] = test system: KM20L2 colon
[9] = test system: NCI-H23 lung
[10] = test system: EKVX NSCLC
[11] = test system: UACC-257 melanoma
[12] = test system: K-562 leukemia
[13] = test system: U251 CNS
[14] = test system: SR leukemia
[15] = test system: OVCAR-3 ovarian
[16] = test system: RXF-631 renal
[17] = test system: SF-295 CNS
[18] = test system: MALME-3M melanoma
[19] = test system: SNB-75 CNS
[20] = test system: LOX IMVI melanoma
[21] = test system: SK-MEL-28 melanoma
[22] = test system: SW-620 colon
[23] = test system: SF-539 CNS
[24] = test system: UO-31 renal
[25] = test system: UACC-62 melanoma
[26] = test system: RXF 393 renal
[27] = test system: HCT-15 colon
[28] = test system: MOLT-4 leukemia
[29] = test system: SK-MEL-5 melanoma
[30] = test system: HCC-2998 colon
[31] = test system: NCI-H460 lung
[32] = test system: A549 NSCLC
[33] = test system: ACHN renal
[34] = test system: SK-MEL-2 melanoma
[35] = test system: HL-60(TB) leukemia
[36] = test system: OVCAR-4 ovarian
[37] = test system: DLD-1 colon
[38] = test system: SN12C renal
[39] = test system: DMS 114 small cell lung
[40] = test system: XF 498 CNS
[41] = test system: HCT-116 colon
[42] = test system: CCRF-CEM leukemia
[43] = test system: RPMI-8226 leukemia
[44] = test system: DMS 273 small cell lung
[45] = test system: IGROV1 ovarian
[46] = test system: SF-268 CNS
[47] = test system: HT29 colon
[48] = test system: OVCAR-8 ovarian
[49] = test system: LXFL 529 NSCLC
[50] = test system: KM12 colon
[51] = test system: NCI-H226 lung
[52] = test system: NCI-H522 lung
[53] = test system: SK-OV-3 ovarian
[54] = test system: SNB-78 CNS
[55] = test system: CAKI-1 renal
[56] = test system: OVCAR-5 ovarian
[57] = test system: HOP-92 NSCLC

**Q.** How did the TGI [1] turn out when `CC(C)c1cccc(C(C)C)c1NC(=S)N=Nc1cc(C(C)(C)C)c(O)c(C(C)(C)C)c1` was run?
**A.** 84.3 µM

**Q.** What about the TGI [2] of the same compound?
**A.** 44.6 µM

**Q.** What about the TGI [3] of the same compound?
**A.** 71.5 µM

**Q.** What about the TGI [4] of the same compound?
**A.** 32.3 µM

**Q.** And the TGI [5]?
**A.** 35.7 µM

**Q.** And the TGI [6]?
**A.** 48.5 µM

**Q.** And the TGI [7]?
**A.** 34.4 µM

**Q.** And the TGI [8]?
**A.** 58.6 µM

**Q.** And the TGI [9]?
**A.** 31.8 µM

**Q.** And the TGI [10]?
**A.** > 100 µM

**Q.** What about the TGI [11] of the same compound?
**A.** 43.7 µM

**Q.** What about the TGI [12] of the same compound?
**A.** 78.8 µM

**Q.** What about the TGI [13] of the same compound?
**A.** 30.1 µM

**Q.** What about the TGI [14] of the same compound?
**A.** > 100 µM

**Q.** What about the TGI [15] of the same compound?
**A.** 52.2 µM

**Q.** What about the TGI [16] of the same compound?
**A.** > 100 µM

**Q.** What about the TGI [17] of the same compound?
**A.** > 100 µM

**Q.** And the TGI [18]?
**A.** 63.8 µM

**Q.** And the TGI [19]?
**A.** 58 µM

**Q.** And the TGI [20]?
**A.** 34.2 µM

**Q.** What about the TGI [21] of the same compound?
**A.** 95.7 µM

**Q.** And the TGI [22]?
**A.** 78 µM

**Q.** What about the TGI [23] of the same compound?
**A.** 39 µM

**Q.** And the TGI [24]?
**A.** 74.7 µM

**Q.** And the TGI [25]?
**A.** 50 µM

**Q.** What about the TGI [26] of the same compound?
**A.** 30.9 µM

**Q.** And the TGI [27]?
**A.** > 100 µM

**Q.** What about the TGI [28] of the same compound?
**A.** > 100 µM

**Q.** And the TGI [29]?
**A.** 37.3 µM

**Q.** What about the TGI [30] of the same compound?
**A.** 54.3 µM

**Q.** What about the TGI [31] of the same compound?
**A.** 67.8 µM

**Q.** What about the TGI [32] of the same compound?
**A.** 45.6 µM

**Q.** What about the TGI [33] of the same compound?
**A.** > 100 µM

**Q.** What about the TGI [34] of the same compound?
**A.** 35.8 µM

**Q.** And the TGI [35]?
**A.** 65.9 µM

**Q.** What about the TGI [36] of the same compound?
**A.** 43.1 µM

**Q.** What about the TGI [37] of the same compound?
**A.** > 100 µM

**Q.** And the TGI [38]?
**A.** 52.4 µM

**Q.** And the TGI [39]?
**A.** 55.5 µM

**Q.** What about the TGI [40] of the same compound?
**A.** 43.3 µM

**Q.** What about the TGI [41] of the same compound?
**A.** 13.1 µM

**Q.** What about the TGI [42] of the same compound?
**A.** 66.6 µM

**Q.** And the TGI [43]?
**A.** 85.9 µM

**Q.** What about the TGI [44] of the same compound?
**A.** > 100 µM

**Q.** And the TGI [45]?
**A.** 62.6 µM

**Q.** What about the TGI [46] of the same compound?
**A.** > 100 µM

**Q.** And the TGI [47]?
**A.** > 100 µM

**Q.** What about the TGI [48] of the same compound?
**A.** 38 µM

**Q.** And the TGI [49]?
**A.** > 100 µM

**Q.** For `CCCCCCCCCCCc1noc2c1C(=O)C(O)CC2` (configuration not stated), which TGI [1] is on record?
**A.** 94.6 µM

**Q.** And the TGI [2]?
**A.** 83 µM

**Q.** And the TGI [3]?
**A.** > 100 µM

**Q.** And the TGI [4]?
**A.** > 100 µM

**Q.** What about the TGI [5] of the same compound?
**A.** 34.1 µM

**Q.** What about the TGI [6] of the same compound?
**A.** 67.2 µM

**Q.** What about the TGI [7] of the same compound?
**A.** 88.5 µM

**Q.** And the TGI [8]?
**A.** 31.8 µM

**Q.** What about the TGI [9] of the same compound?
**A.** 31.9 µM

**Q.** What about the TGI [10] of the same compound?
**A.** > 100 µM

**Q.** What about the TGI [11] of the same compound?
**A.** 42.3 µM

**Q.** What about the TGI [12] of the same compound?
**A.** 42.8 µM

**Q.** What about the TGI [13] of the same compound?
**A.** 28.3 µM

**Q.** And the TGI [14]?
**A.** 78 µM

**Q.** What about the TGI [15] of the same compound?
**A.** 34.3 µM

**Q.** What about the TGI [16] of the same compound?
**A.** 36.7 µM

**Q.** And the TGI [17]?
**A.** 39.6 µM

**Q.** And the TGI [19]?
**A.** 84.5 µM

**Q.** And the TGI [20]?
**A.** 34.4 µM

**Q.** What about the TGI [50] of the same compound?
**A.** 57.1 µM

**Q.** And the TGI [51]?
**A.** 35.9 µM

**Q.** And the TGI [21]?
**A.** 75.2 µM

**Q.** What about the TGI [22] of the same compound?
**A.** 35.6 µM

**Q.** And the TGI [52]?
**A.** 40 µM

**Q.** What about the TGI [23] of the same compound?
**A.** 54.7 µM

**Q.** What about the TGI [24] of the same compound?
**A.** 71.2 µM

**Q.** What about the TGI [53] of the same compound?
**A.** 94.8 µM

**Q.** And the TGI [25]?
**A.** 33.8 µM

**Q.** What about the TGI [26] of the same compound?
**A.** 27.5 µM

**Q.** What about the TGI [27] of the same compound?
**A.** 43.7 µM

**Q.** And the TGI [54]?
**A.** 65.1 µM

**Q.** What about the TGI [28] of the same compound?
**A.** 65.7 µM

**Q.** And the TGI [29]?
**A.** 30.2 µM

**Q.** And the TGI [31]?
**A.** 37.7 µM

**Q.** What about the TGI [32] of the same compound?
**A.** 55 µM

**Q.** What about the TGI [33] of the same compound?
**A.** > 100 µM

**Q.** What about the TGI [34] of the same compound?
**A.** 38.7 µM

**Q.** What about the TGI [35] of the same compound?
**A.** 65.5 µM

**Q.** And the TGI [36]?
**A.** 33 µM

**Q.** What about the TGI [55] of the same compound?
**A.** > 100 µM

**Q.** And the TGI [38]?
**A.** 30.4 µM

**Q.** And the TGI [40]?
**A.** 27 µM

**Q.** What about the TGI [41] of the same compound?
**A.** 41.6 µM

**Q.** What about the TGI [56] of the same compound?
**A.** 42.6 µM

**Q.** What about the TGI [57] of the same compound?
**A.** 42.8 µM

**Q.** And the TGI [42]?
**A.** 64.9 µM

**Q.** What about the TGI [43] of the same compound?
**A.** 67.7 µM

**Q.** And the TGI [44]?
**A.** 30.4 µM

**Q.** What about the TGI [45] of the same compound?
**A.** > 100 µM

**Q.** And the TGI [46]?
**A.** > 100 µM

**Q.** And the TGI [47]?
**A.** 33.2 µM

**Q.** And the TGI [48]?
**A.** 35.8 µM

**Q.** What about the TGI [49] of the same compound?
**A.** 33.1 µM
